The results in this text go back to US8906914B2, “Ethylene diamine modulators of fatty acid hydrolase” (priority 2009, dated 2014).

Structures can show the parent of a compound that is named as a salt.

In one assay the target is T1, FAAH (Homo sapiens, UniProt O00519).
T1 sequence (O00519 1-579): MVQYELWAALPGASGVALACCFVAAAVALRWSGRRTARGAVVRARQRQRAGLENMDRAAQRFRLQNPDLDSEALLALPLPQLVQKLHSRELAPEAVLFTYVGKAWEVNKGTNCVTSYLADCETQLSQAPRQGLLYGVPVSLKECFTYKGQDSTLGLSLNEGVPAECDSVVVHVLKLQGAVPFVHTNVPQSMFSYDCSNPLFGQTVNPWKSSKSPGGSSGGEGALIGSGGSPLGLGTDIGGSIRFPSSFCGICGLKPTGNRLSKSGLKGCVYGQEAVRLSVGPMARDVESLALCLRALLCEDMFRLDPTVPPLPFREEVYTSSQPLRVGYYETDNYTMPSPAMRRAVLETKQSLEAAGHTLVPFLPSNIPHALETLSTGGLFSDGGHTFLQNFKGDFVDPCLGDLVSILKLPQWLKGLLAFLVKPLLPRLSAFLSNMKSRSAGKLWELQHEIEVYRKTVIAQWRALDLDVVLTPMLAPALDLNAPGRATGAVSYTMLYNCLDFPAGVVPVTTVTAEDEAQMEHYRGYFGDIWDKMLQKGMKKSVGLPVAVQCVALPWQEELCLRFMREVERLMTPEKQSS
The experiment in a line: Human FAAH assay (Assay Method 1), 3H-anandamide hydrolysis in cell homogenate. The format is biochemical. The arrangement: expressed in transfected cells; alternatively T84 frozen cell pellets (endogenous FAAH). As to the method:
A. Transfection of Cells with Human FAAH
(§1) A 10-cm tissue culture dish with a confluent monolayer of SK-N-MC cells was split 2 days (d) prior to transfection. Using sterile technique, the media was removed and the cells were detached from the dish by the addition of trypsin. One fifth of the cells were then placed onto a new 10-cm dish. Cells were grown in a 37° C. incubator with 5% CO2 in Minimal Essential Media Eagle with 10% Fetal Bovine Serum. After 2 d, cells were approximately 80% confluent. These cells were removed from the dish with trypsin and pelleted in a clinical centrifuge. The pellet was re-suspended in 400 μL complete media and transferred to an electroporation cuvette with a 0.4 cm gap between the electrodes. Supercoiled human FAAH cDNA (1 μg) was added to the cells and mixed. The voltage for the electroporation was set at 0.25 kV, and the capacitance was set at 960 μF. After electroporation, the cells were diluted into complete media (10 mL) and plated onto four 10-cm dishes. Because of the variability in the efficiency of electroporation, four different concentrations of cells were plated. The ratios used were 1:20, 1:10, and 1:5, with the remainder of the cells being added to the fourth dish. The cells were allowed to recover for 24 h before adding the selection media (complete media with 600 μg/mL G418). After 10 d, dishes were analyzed for surviving colonies of cells. Dishes with well-isolated colonies were used. Cells from individual colonies were isolated and tested.
(§2) The assay mixture consisted of 50 μL of the cell homogenate, 10 μL of the test compound, and 40 μL of anandamide [1-3H-ethanolamine] (^3H-AEA, Perkin-Elmer, 10.3 Ci/mmol), which was added last, for a final tracer concentration of 80 nM. The reaction mixture was incubated at rt for 1 h. During the incubation, 96-well Multiscreen filter plates (catalog number MAFCNOB50; Millipore, Bedford, Mass., USA) were loaded with 25 μL of activated charcoal (Multiscreen column loader, catalog number MACL09625, Millipore) and washed once with 100 μL of MeOH. Also during the incubation, 96-well DYNEX MicroLite plates (catalog number NL510410) were loaded with 100 μL of MicroScint40 (catalog number 6013641, Packard Bioscience, Meriden, Conn., USA). After the 1 h incubation, 60 μL of the reaction mixture were transferred to the charcoal plates, which were then assembled on top of the DYNEX plates using Centrifuge Alignment Frames (catalog number MACF09604, Millipore). The unbound labeled ethanolamine was centrifuged through to the bottom plate (5 min at 2000 rpm), which was preloaded with the scintillant, as described above. The plates were sealed and left at rt for 1 h before counting on a Hewlett Packard TopCount.
(§3) Where activity is shown as greater than (>) a particular value, the value is the solubility limit of the compound in the assay medium or the highest concentration tested in the assay.

The target of a further assay is T2, Rat FAAH-1 (Rattus norvegicus, UniProt P97612).
T2 construct: expressed in transfected cells
T2 sequence (P97612 1-579): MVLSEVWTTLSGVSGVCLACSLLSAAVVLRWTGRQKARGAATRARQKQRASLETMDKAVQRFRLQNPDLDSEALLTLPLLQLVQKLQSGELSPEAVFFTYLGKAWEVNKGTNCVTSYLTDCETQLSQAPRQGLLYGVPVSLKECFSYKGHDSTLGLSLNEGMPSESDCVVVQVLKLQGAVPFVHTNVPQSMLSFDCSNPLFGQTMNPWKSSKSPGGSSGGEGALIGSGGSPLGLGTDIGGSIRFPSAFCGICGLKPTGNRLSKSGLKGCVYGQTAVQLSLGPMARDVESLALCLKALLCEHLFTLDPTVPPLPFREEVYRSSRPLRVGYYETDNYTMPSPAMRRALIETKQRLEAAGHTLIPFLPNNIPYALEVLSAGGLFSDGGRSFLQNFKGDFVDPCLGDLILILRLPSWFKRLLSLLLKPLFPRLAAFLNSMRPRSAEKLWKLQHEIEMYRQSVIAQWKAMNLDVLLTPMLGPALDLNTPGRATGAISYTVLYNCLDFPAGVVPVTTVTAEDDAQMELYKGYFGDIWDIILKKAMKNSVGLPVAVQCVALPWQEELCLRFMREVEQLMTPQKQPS
The experiment in a line: Rat FAAH-1 assay (Assay Method 2), 3H-anandamide hydrolysis in cell homogenate. It is filed as biochemical. The procedure: A. Transfection of Cells with Rat FAAH-1
as §1, with “rat” for “human”
as §2, with “[1-^3H-ethanolamine]” for “[1-3H-ethanolamine]”
as §3

For orientation: IC50 means the midpoint of a concentration-inhibition curve.

`N[C@@H](CNc1cc(-c2ccc(C(F)(F)F)c(Cl)c2)ncn1)c1ccc(F)c(F)c1` [Example 41, (1R)—N^2-[6-(3-Chloro-4-trifluoromethyl-phenyl)-pyrimidin-4-yl]-1-(3,4-difluoro-phenyl)-ethane-1,2-diamine, trifluoroacetic acid salt]: the IC50 against FAAH was 20 nM; against Rat FAAH-1, 60 nM.
For the molecule `Cc1ccc2sc(-c3cc(NC[C@H](N)c4ccccc4)ncn3)cc2c1` [Example 9, (1R)—N^2-[6-(5-Methyl-1-benzothiophen-2-yl)pyrimidin-4-yl]-1-phenylethane-1,2-diamine hydrochloride acid salt], the values for the IC50 at FAAH and against Rat FAAH-1 were 20 nM and 320 nM, respectively.
Consider `N[C@@H](CNc1cc(-c2ccc(C(F)(F)F)c(Cl)c2)ncn1)c1ccc(Cl)cc1` [Example 39, (1R)—N^2-1-(4-Chloro-phenyl)-[6-(3-chloro-4-trifluoromethyl-phenyl)-pyrimidin-4-yl]-ethane-1,2-diamine, trifluoroacetic acid salt], for which the IC50 stood at 66 nM against FAAH and 40 nM at Rat FAAH-1.
The like results for `N[C@@H](CNc1cc(-c2cc(F)c(OC(F)F)c(F)c2)ncn1)c1ccccc1` [Example 12, (1R)—N^2-{6-[4-(Difluoromethoxy)-3,5-difluorophenyl]pyrimidin-4-yl}-1-phenylethane-1,2-diamine hydrochloride acid salt] were, in that order, 12 nM and 100 nM.
The like results for `N[C@H](CNc1cc(-c2ccc(C(F)(F)F)c(Cl)c2)ncn1)c1ccc(F)c(Cl)c1` [Example 46, (1S)—N^2-1-(3-Chloro-4-fluoro-phenyl)-[6-(3-chloro-4-trifluoromethyl-phenyl)-pyrimidin-4-yl]-ethane-1,2-diamine] were, in that order, 3000 nM and 3000 nM.
Regarding `N[C@H](CNc1cc(-c2ccc(C(F)(F)F)c(Cl)c2)ncn1)c1ccc(F)cc1` [Example 28, (1S)—N^2-[6-(3-Chloro-4-trifluoromethyl-phenyl)-pyrimidin-4-yl]-1-(4-fluoro-phenyl)-ethane-1,2-diamine], the IC50 against FAAH was 600 nM; against Rat FAAH-1 it was 900 nM.
Consider `COc1ccccc1[C@@H](N)CNc1cc(-c2ccc(C(F)(F)F)c(Cl)c2)ncn1` [Example 56, (1R)—N^2-[6-(3-Chloro-4-trifluoromethyl-phenyl)-pyrimidin-4-yl]-1-(2-methoxy-phenyl)-ethane-1,2-diamine], for which the IC50 on FAAH amounted to 1200 nM; against Rat FAAH-1 it was 6000 nM.
On the same counts, the results for `N#Cc1cccc([C@H](N)CNc2cc(-c3ccc(C(F)(F)F)c(Cl)c3)ncn2)c1` [Example 48, (1S)-3-{1-Amino-2-[6-(3-chloro-4-trifluoromethyl-phenyl)-pyrimidin-4-ylamino]-ethyl}-benzonitrile] are 3000 nM and 3000 nM.
As to `N[C@@H](CNc1cc(-c2ccc3c(C(F)(F)F)noc3c2)ncn1)c1ccccc1` [Example 13, (1R)-1-Phenyl-N^2-[6-(3-(trifluoromethyl)-benzo[d]isoxazol-6-yl)pyrimidin-4-yl]-ethane-1,2-diamine hydrochloride acid salt], the figures for the IC50 against FAAH and against Rat FAAH-1 were 44 nM and 71 nM, respectively.
On the same counts, the results for `N[C@H](CNc1cc(-c2ccc(C(F)(F)F)c(Cl)c2)ncn1)c1ccc2c(c1)OC(F)(F)O2` [Example 31, (1S)—N^2-[6-(3-Chloro-4-trifluoromethyl-phenyl)-pyrimidin-4-yl]-1-(2,2-difluoro-benzo[1,3]dioxol-5-yl)-ethane-1,2-diamine] are 630 nM and 770 nM.
Regarding `N[C@H](CNc1cc(-c2ccc(C(F)(F)F)c(Cl)c2)ncn1)c1ccc(F)c(F)c1` [Example 40, (1S)—N^2-[6-(3-Chloro-4-trifluoromethyl-phenyl)-pyrimidin-4-yl]-1-(3,4-difluoro-phenyl)-ethane-1,2-diamine, trifluoroacetic acid salt], the IC50 at FAAH is 1000 nM; at Rat FAAH-1, 5000 nM.
Regarding `N#Cc1ccc([C@@H](N)CNc2cc(-c3ccc(C(F)(F)F)c(Cl)c3)ncn2)cc1F` [Example 52, (1R)-4-{1-Amino-2-[6-(3-chloro-4-trifluoromethyl-phenyl)-pyrimidin-4-ylamino]-ethyl}-2-fluoro-benzonitrile], the values for the IC50 against FAAH and at Rat FAAH-1 were 130 nM and 240 nM, respectively.
For `N[C@@H](CNc1cc(-c2cccc(Cl)c2)ncn1)c1ccccc1` [Example 15, (1R)—N^2-[6-(3-Chlorophenyl)pyrimidin-4-yl]-1-phenylethane-1,2-diamine hydrochloride acid salt], the IC50 against FAAH was found to be 1000 nM.
